Paper PMC11859928, “Design, Synthesis, and Antiproliferative Activity of Novel Indole/1,2,4-Triazole Hybrids as Tubulin Polymerization Inhibitors” (Pharmaceuticals, 2025)

Assays:
HCT-116 = experiment: NCI five-dose assay; assay type: cell-based, human; details: HCT-116, Colon cancer; for CC50 / GI50: Homo sapiens; for CC50: 48 h, read-out: LC50 (the source's name); for GI50: read-out: GI50 Conc. per Cell Lines
Colon cancer subpanel = experiment: NCI five-dose assay, subpanel mean; assay type: cell-based, human; details: for GI50 Selectivity Ratio (MID a/MID b): Colon cancer subpanel; for GI50: Homo sapiens, average sensitivity of all cell lines of the Colon cancer subpanel, read-out: GI50 Subpanel MID b
HS 578T = experiment: NCI five-dose assay; assay type: cell-based, human; details: Breast cancer; for LC50 / GI50: Homo sapiens; for LC50: 48 h; for GI50: read-out: GI50 Conc. per Cell Lines
Leukemia subpanel = experiment: NCI five-dose assay, subpanel mean; assay type: cell-based, human; details: for GI50: Homo sapiens, average sensitivity of all cell lines of the Leukemia subpanel, read-out: GI50 Subpanel MID b; for GI50 Selectivity Ratio (MID a/MID b): Leukemia subpanel
HCT-15 = experiment: NCI five-dose assay; assay type: cell-based, human; details: HCT-15, Colon cancer; for CC50 / GI50: Homo sapiens; for CC50: 48 h, read-out: LC50 (the source's name); for GI50: read-out: GI50 Conc. per Cell Lines
Breast cancer subpanel = experiment: NCI five-dose assay, subpanel mean; assay type: cell-based, human; details: for GI50 Selectivity Ratio (MID a/MID b): Breast cancer subpanel; for GI50: Homo sapiens, average sensitivity of all cell lines of the Breast cancer subpanel, read-out: GI50 Subpanel MID b
T-47D = experiment: NCI five-dose assay; assay type: cell-based, human; details: Breast cancer; for LC50 (concentration killing 50% of cells) / GI50: Homo sapiens, T47D; for LC50 (concentration killing 50% of cells): 48 h; for GI50: read-out: GI50 Conc. per Cell Lines
CNS cancer subpanel = experiment: NCI five-dose assay, subpanel mean; assay type: cell-based, human; details: for GI50: Homo sapiens, average sensitivity of all cell lines of the CNS cancer subpanel, read-out: GI50 Subpanel MID b
HL-60(TB) = experiment: NCI five-dose assay; assay type: cell-based, human; details: Leukemia; for CC50 / GI50: Homo sapiens; for CC50: 48 h, read-out: LC50 (the source's name); for GI50: read-out: GI50 Conc. per Cell Lines
M14 = experiment: NCI five-dose assay; assay type: cell-based, human; details: M14, Melanoma; for CC50 / GI50: Homo sapiens; for CC50: 48 h, read-out: LC50 (the source's name); for GI50: read-out: GI50 Conc. per Cell Lines
CCRF-CEM = experiment: NCI five-dose assay; assay type: cell-based, human; details: Leukemia; for CC50 / GI50: Homo sapiens; for CC50: 48 h, read-out: LC50 (the source's name); for GI50: read-out: GI50 Conc. per Cell Lines
RPMI-8226 = experiment: NCI five-dose assay; assay type: cell-based, human; details: RPMI-8226, Leukemia; for CC50 / GI50: Homo sapiens; for CC50: 48 h, read-out: LC50 (the source's name); for GI50: read-out: GI50 Conc. per Cell Lines
LOX IMVI = experiment: NCI five-dose assay; assay type: cell-based, human; details: Melanoma; for GI50: read-out: GI50 Conc. per Cell Lines
BT-549 = experiment: NCI five-dose assay; assay type: cell-based, human; details: BT-549, Breast cancer; for CC50 / GI50: Homo sapiens; for CC50: 48 h, read-out: LC50 (the source's name); for GI50: read-out: GI50 Conc. per Cell Lines
SNB-19 = experiment: NCI five-dose assay; assay type: cell-based, human; details: SNB-19, CNS cancer; for CC50 / GI50: Homo sapiens; for CC50: 48 h, read-out: LC50 (the source's name); for GI50: read-out: GI50 Conc. per Cell Lines
[1] = tested on: MDA-MB 231 breast cancer cells; experiment: Cell cycle analysis; assay type: cell-based; details: MDA-MB 231, 24 h, IC50 concentration of 7i
Procedure: The impact of compound 7i on cell cycle progression was investigated in MDA-MB 231 breast cancer cells. […] The cell line was handled with PI/Annexin V, and flow cytometry was utilizing a BD FACS Caliber. […] This indicates a cell cycle arrest at the G1 phase transition.
(§1) The MDA-MB231 breast cancer cell line was used for cell cycle study and apoptosis detection. The assay was performed as previously documented (Appendix A).

MDA-MB 231 cell = experiment: Apoptosis induction assay (Annexin V/PI); assay type: cell-based; details: MDA-MB 231, 24 h
Procedure: The MDA-MB 231 cell was labeled with Annexin V/PI, cultured for 24 h, and examined to assess the capacity of 7i to induce apoptosis.
as §1

SMILES	TGI Conc. per Cell Lines (HCT-116)	CC50 (HCT-116)	GI50 (HCT-116)	GI50 Selectivity Ratio (MID a/MID b) (Colon cancer subpanel)	GI50 (Colon cancer subpanel)	TGI Conc. per Cell Lines (HS 578T)	LC50 (HS 578T)	GI50 (HS 578T)	GI50 (Leukemia subpanel)	GI50 Selectivity Ratio (MID a/MID b) (Leukemia subpanel)	TGI Conc. per Cell Lines (HCT-15)	CC50 (HCT-15)	GI50 (HCT-15)	GI50 Selectivity Ratio (MID a/MID b) (Breast cancer subpanel)	GI50 (Breast cancer subpanel)	TGI Conc. per Cell Lines (T-47D)	LC50 (concentration killing 50% of cells) (T-47D)	GI50 (T-47D)	GI50 (CNS cancer subpanel)	CC50 (HL-60(TB))	further results
Cc1ccc(C(=O)CSc2nnc(-c3c[nH]c4ccccc34)n2-c2ccccc2)cc1 [Compound 6h, 2-((5-(1H-Indol-3-yl)-4-phenyl-4H-1,2,4-triazol-3-yl)thio)-1-(p-tolyl)ethenone]	60.40 µM	> 100 µM	18.7 µM	0.76	25.4 µM	56.30 µM	> 100 µM	14.1 µM	33.5 µM	0.58	>100 µM	> 100 µM	22.6 µM	1.07	18 µM	˃100 µM	> 100 µM	24.9 µM	17.4 µM	> 100 µM	GI50 Selectivity Ratio (MID a/MID b) (CNS cancer subpanel; CNS cancer subpanel): 1.11; GI50 (HL-60(TB)): 30.8 µM; TGI Conc. per Cell Lines (HL-60(TB)): ˃100 µM; CC50 (M14): > 100 µM; GI50 (M14): 32.1 µM; TGI Conc. per Cell Lines (M14): >100 µM; CC50 (CCRF-CEM): > 100 µM; GI50 (CCRF-CEM): 54.4 µM; TGI Conc. per Cell Lines (CCRF-CEM): ˃100 µM; CC50 (RPMI-8226): > 100 µM; GI50 (RPMI-8226): 29.8 µM; TGI Conc. per Cell Lines (RPMI-8226): ˃100 µM; GI50 (LOX IMVI; Homo sapiens): 14.3 µM; TGI Conc. per Cell Lines (LOX IMVI): 27.30 µM; TGI Conc. per Cell Lines (BT-549): 46.70 µM; CC50 (BT-549): 87.2 µM; GI50 (BT-549): 25.1 µM; CC50 (SNB-19): 75.3 µM; GI50 (SNB-19): 15.8 µM; TGI Conc. per Cell Lines (SNB-19): 34.50 µM
O/N=C(\CSc1nnc(-c2c[nH]c3ccccc23)n1-c1ccccc1)c1ccc(Br)cc1 [Compound 7i, (Z)-2-((5-(1H-Indol-3-yl)-4-phenyl-4H-1,2,4-triazol-3-yl)thio)-1-(4-bromophenyl) Ethanone Oxime]	17.40 µM	> 100 µM	3.45 µM	0.88	3.19 µM	11.90 µM	> 100 µM	2.84 µM	2.29 µM	1.22	4.72 µM	12.1 µM	2.11 µM	1.02	2.73 µM	17.20 µM	> 100 µM	3.51 µM	3.15 µM	> 100 µM	cells in G0/G1 phase (%DIP G1) [1]: 83%; GI50 (HL-60(TB)): 1.92 µM; TGI Conc. per Cell Lines (HL-60(TB)): 4.55 µM; CC50 (M14): > 100 µM; GI50 (M14): 3.4 µM; TGI Conc. per Cell Lines (M14): 17.60 µM; necrosis percentage (PI/Annexin upper left quadrant) (MDA-MB 231 cell): 3.88%; CC50 (CCRF-CEM): > 100 µM; GI50 (CCRF-CEM): 2.78 µM; CC50 (RPMI-8226): > 100 µM; GI50 (RPMI-8226): 2.45 µM; CC50 (LOX IMVI; Homo sapiens, 48 h, read-out: LC50 (the source's name)): 5.69 µM; GI50 (LOX IMVI; Homo sapiens): 1.71 µM; TGI Conc. per Cell Lines (LOX IMVI): 3.12 µM; TGI Conc. per Cell Lines (BT-549): 7.25 µM; CC50 (BT-549): 34.2 µM; GI50 (BT-549): 3.16 µM; CC50 (SNB-19): 84.5 µM; GI50 (SNB-19): 4.32 µM; TGI Conc. per Cell Lines (SNB-19): 19.80 µM
